Data as given in patent US12023345B2, “Compositions and methods for treating lysosomal disorders” (RUSH UNIVERSITY MEDICAL CENTER, priority 2014, dated 2024).

Legend:
TPP1 = TPP1 protein by Western blot in primary mouse astrocytes; assay type: cell-based
Experimental: 12(A) Cells were treated with different concentrations of aspirin for 24 h under serum-free condition followed by Western blot for TPP1. 12(B) Cells were treated with 5 μM aspirin for different time periods under serum-free condition followed by Western blot for TPP1. Actin was run as a house keeping molecule. 12(C) Cells were treated with different concentrations of aspirin for 24 h under serum-free condition followed by TPP1 activity assay using cell extract containing 5 μg of total protein and Ala-Ala-Phe 7-amido-4-methylcoumarin as substrate. Results represent three independent experiments.
Immunoblotting: Western blotting was conducted as described earlier (31, 32) with modifications. Briefly, cells were scraped in 1× RIPA buffer, protein was measured using Bradford reagent and sodium dodecyl sulfate (SDS) buffer was added and electrophoresed on NuPAGE® Novex® 4-12% Bis-Tris gels (Invitrogen) and proteins transferred onto a nitrocellulose membrane (Bio-Rad) using the Thermo-Pierce Fast Semi-Dry Blotter.

Tfeb = experiment: TFEB protein by immunoblot in mouse primary astrocytes; assay type: cell-based; conditions: aspirin 2 and 5 μM, 12 h, serum-free
Experimental: Isolation of Primary Mouse Astroglia: Astroglia were isolated from mixed glial cultures as described (24, 25) according to the procedure of Giulian and Baker (26). Briefly, on day 9, the mixed glial cultures were washed three times with Dulbecco's modified Eagle's medium/F-12 and subjected to shaking at 240 rpm for 2 h at 37° C. on a rotary shaker to remove microglia. After 2 days, the shaking was repeated for 24 h for the removal of oligodendroglia and to ensure the complete removal of all nonastroglial cells. The attached cells were seeded onto new plates for further studies. Immunoblotting: Western blotting was conducted as described earlier (31, 32) with modifications. Briefly, cells were scraped in 1× RIPA buffer, protein was measured using Bradford reagent and sodium dodecyl sulfate (SDS) buffer was added and electrophoresed on NuPAGE® Novex® 4-12% Bis-Tris gels (Invitrogen) and proteins transferred onto a nitrocellulose membrane (Bio-Rad) using the Thermo-Pierce Fast Semi-Dry Blotter. The membrane was then washed for 15 min in TBS plus Tween 20 (TBST) and blocked for 1 hr in TBST containing BSA. […] Densitometric Analysis: Protein blots were analyzed using ImageJ (NIH, Bethesda, Md.) and bands were normalized to their respective β-actin loading controls. […]

CC(=O)Oc1ccccc1C(=O)O [aspirin]
earliest time at which increase in TPP1 protein was evident (TPP1; 5 μM aspirin): 2 h
time of maximum increase in TPP1 protein (TPP1; 5 μM aspirin): 12 h
TPP1 protein (Western blot), dose (TPP1; aspirin 2 and 5 μM, 24 h): increase in TPP1 protein
TFEB protein level (Western blot) (Tfeb): able to increase the protein level of TFEB
